One experiment relates to Omicron BA.1.1 variant. As to the kind of experiment: Antiviral activity assay (CPE) in Vero E6 cells, Omicron BA.1.1. It counts as cell-based, SARS-CoV-2. The settings on record: Severe acute respiratory syndrome coronavirus 2, Vero C1008, 48 h.
In the next experiment the test system is Omicron BA.2.3 variant. Briefly: Antiviral activity assay (CPE) in Vero E6 cells, Omicron BA.2.3. It is filed as cell-based, SARS-CoV-2. The settings on record: Severe acute respiratory syndrome coronavirus 2, Vero C1008, 48 h.

As a reminder, the EC50 is the midpoint of the concentration-response curve. Consider `C[C@@H]1O[C@@H](O[C@@H]2[C@@H](O)[C@H](OCCc3ccc(O)c(O)c3)O[C@H](CO)[C@H]2OC(=O)/C=C/c2ccc(O)c(O)c2)[C@H](O)[C@H](O)[C@H]1O` [Acteoside], for which the EC50 worked out at 41.3 µM with Omicron BA.1.1 variant and 70.4 µM with Omicron BA.2.3 variant.

The values are drawn from article PMC10394814, “Discovery and evaluation of active compounds from Xuanfei Baidu formula against COVID-19 via SARS-CoV-2 M^pro” (Chinese Medicine, 2023).
